{"source": "patent US20080166695A1", "about": "“Solution for the storage and perfusion of organs awaiting transplantation” (Sigma-Tau Industrie Farmaceutiche Riunite S.p.A., priority 2001, published 2008)", "origin": "cited, not measured here", "tested_on": "isolated rabbit heart", "conditions": "isolated rabbit heart perfused with whole blood with L-carnitine added", "data": [{"smiles": "C[N+](C)(C)C[C@H](O)CC(=O)[O-]", "note": "[L-carnitine]", "values": [{"measurement": "recovery of cardiac functions", "result": "protective effect"}]}]}
